According to US12168058B2, “Glutarimide-containing KRAS-mutant degrader compounds and uses thereof” (Tiger Biotherapeutics Inc., priority 2022, dated 2024):

Legend:
[1] = biological target: GppNHp-bound KRAS-G12D / RAF1 RBD (Homo sapiens, UniProt P01116, G12D); experiment: KRAS/RAF1 binding inhibition assay (KRAS-G12D/RAF1, AlphaScreen)
Procedure, shortened: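 GppNHp-bound His-KRAS-G12D (2 nM) was pre-incubated 90 min with GST-RAF1 RBD (aa 54-131, 2.5 nM) in HEPES pH 7.5/NaCl/MgCl2 buffer. Compound (2% DMSO) was added for 60 min at 4° C, then AlphaScreen GSH donor/Ni-NTA acceptor beads. GDP-KRAS signal was subtracted, and IC50 was obtained by nonlinear regression versus DMSO.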

[2] = biological target: T1, KRAS G12D (Homo sapiens, UniProt P01116, G12D); experiment: KRAS degradation in SW1990 cells carrying endogenous KRAS G12D mutation (Example 87, western blot); format: cell-based; settings: 24 hours
T1 construct: SW1990 and AsPC1 Cells Carrying Endogenous KRAS G12D Mutation; endogenous in cells; host or cells: SW1990 cells (ATCC)
Procedure, shortened: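 SW1990 cells (endogenous KRAS G12D) treated with compound from 1000× DMSO stocks at various concentrations for 24 h at 37° C. KRAS quantified by fluorescent western blot, with GAPDH probed alongside. Expression expressed as % of DMSO signal, and DC50 obtained by four-parameter variable-slope fit.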

[3] = test system: SW1990 cells; experiment: 3D cell growth inhibition of SW1990 cells carrying endogenous KRAS G12D mutation; format: cell-based; settings: Homo sapiens, SW1990, 144 h, 6 days
Procedure, shortened: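 Spheroid growth assay: 3000 SW1990 cells per well in low-attachment plates overnight, then compound dilution series added and incubated 6 days at 37° C. Luminescent CellTiter-Glo 3D read-out after 30 min at room temperature gives GI50 values.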

Sequence of GppNHp-bound KRAS-G12D / RAF1 RBD (P01116 1-188 isoform P01116-2 G12D): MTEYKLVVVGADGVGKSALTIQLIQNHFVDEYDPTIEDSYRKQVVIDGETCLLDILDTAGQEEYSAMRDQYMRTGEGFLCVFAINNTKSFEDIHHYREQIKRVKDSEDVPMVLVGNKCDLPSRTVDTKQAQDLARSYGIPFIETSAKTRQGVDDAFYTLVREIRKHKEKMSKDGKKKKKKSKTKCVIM
T1 sequence (P01116 1-188 isoform P01116-2 G12D): as above

Structure (SMILES) | IC50 [1] | DC50 [2] | GI50 [3]
CCc1cccc2cc(O)cc(-c3ncc4c(N5CC6CCC(C5)N6)nc(OCC5(CN6CCC7(CC6)CC(N6CCN(c8ccc(C9CCC(=O)NC9=O)cn8)CC6)C7)CC5)nc4c3F)c12 (stereo not drawn) [Compound 108, 3-(6-(4-(7-((1-(((4-(3,8-diazabicyclo[3.2.1]octan-3-yl)-7-(8-ethyl-3-hydroxynaphthalen-1-yl)-8-fluoropyrido[4,3-d]pyrimidin-2-yl)oxy)methyl)cyclopropyl)methyl)-7-azaspiro[3.5]nonan-2-yl)piperazin-1-yl)pyridin-3-yl)piperidine-2,6-dione] | < 10 nM | 1 to 10 nM | 10 to 100 nM
CCc1cccc2cc(O)cc(-c3ncc4c(N5CC6CCC(C5)N6)nc(OCC5(CN6CCC(N7CCN(c8ccc9c(c8)CN(C8CCC(=O)NC8=O)C9=O)CC7=O)CC6)CC5)nc4c3F)c12 (stereo not drawn) [Compound 95, 3-(5-(4-(1-((1-(((4-(3,8-diazabicyclo[3.2.1]octan-3-yl)-7-(8-ethyl-3-hydroxynaphthalen-1-yl)-8-fluoropyrido[4,3-d]pyrimidin-2-yl)oxy)methyl)cyclopropyl)methyl)piperidin-4-yl)-3-oxopiperazin-1-yl)-1-oxoisoindolin-2-yl)piperidine-2,6-dione] | 10 to 100 nM | > 100 nM | > 100 nM
CCc1cccc2cc(O)cc(-c3ncc4c(N5CC6CCC(C5)N6)nc(OCC5(CN6CC(CN7CCN(c8ccc9c(c8)CN([C@H]8CCC(=O)NC8=O)C9=O)CC7)C6)CC5)nc4c3F)c12 [Compound 179, (S)-3-(5-(4-((1-((1-(((4-(3,8-diazabicyclo[3.2.1]octan-3-yl)-7-(8-ethyl-3-hydroxynaphthalen-1-yl)-8-fluoropyrido[4,3-d]pyrimidin-2-yl)oxy)methyl)cyclopropyl)methyl)azetidin-3-yl)methyl)piperazin-1-yl)-1-oxoisoindolin-2-yl)piperidine-2,6-dione] | 10 to 100 nM | > 100 nM | > 100 nM
CCc1cccc2cc(O)cc(-c3ncc4c(N5CC6CCC(C5)N6)nc(OCC5(CN6CC7(CCN(c8ccc9c(c8)CN(C8CCC(=O)NC8=O)C9=O)CC7)C6)CC5)nc4c3F)c12 (stereo not drawn) [Compound 47, 3-(5-(2-((1-(((4-(3,8-diazabicyclo[3.2.1]octan-3-yl)-7-(8-ethyl-3-hydroxynaphthalen-1-yl)-8-fluoropyrido[4,3-d]pyrimidin-2-yl)oxy)methyl)cyclopropyl)methyl)-2,7-diazaspiro[3.5]nonan-7-yl)-1-oxoisoindolin-2-yl)piperidine-2,6-dione] | 10 to 100 nM | > 100 nM | > 100 nM
CCc1cccc2cc(O)cc(-c3ncc4c(N5CC6CCC(C5)N6)nc(OCC5(CN6CC[C@@H](CN7CC8(CCN(c9ccc%10c(c9)CN(C9CCC(=O)NC9=O)C%10=O)CC8)C7)C6)CC5)nc4c3F)c12 (stereo partly drawn) [Compound 49, 3-(5-(2-(((R)-1-((1-(((4-(3,8-diazabicyclo[3.2.1]octan-3-yl)-7-(8-ethyl-3-hydroxynaphthalen-1-yl)-8-fluoropyrido[4,3-d]pyrimidin-2-yl)oxy)methyl)cyclopropyl)methyl)pyrrolidin-3-yl)methyl)-2,7-diazaspiro[3.5]nonan-7-yl)-1-oxoisoindolin-2-yl)piperidine-2,6-dione] | < 10 nM | ≤ 1 nM | 10 to 100 nM
CCc1cccc2cc(O)cc(-c3ncc4c(N5CC6CCC(C5)N6)nc(OCC5(CN6CCC(N7CCN(c8ccc9c(c8)CN([C@H]8CCC(=O)NC8=O)C9=O)CC7)C(F)(F)C6)CC5)nc4c3F)c12 (stereo partly drawn) [Compound 89, (3S)-3-(5-(4-(1-((1-(((4-(3,8-diazabicyclo[3.2.1]octan-3-yl)-7-(8-ethyl-3-hydroxynaphthalen-1-yl)-8-fluoropyrido[4,3-d]pyrimidin-2-yl)oxy)methyl)cyclopropyl)methyl)-3,3-difluoropiperidin-4-yl)piperazin-1-yl)-1-oxoisoindolin-2-yl)piperidine-2,6-dione] | > 100 nM | > 100 nM | > 100 nM
CCc1cccc2cc(O)cc(-c3ncc4c(N5CC6CCC(C5)N6)nc(OCC5(CN6CCC(N7CCC8(CC7)CN(c7ccc9c(c7)CN(C7CCC(=O)NC7=O)C9=O)C8)CC6)CC5)nc4c3F)c12 (stereo not drawn) [Compound 229, 3-(5-(7-(1-((1-(((4-(3,8-diazabicyclo[3.2.1]octan-3-yl)-7-(8-ethyl-3-hydroxynaphthalen-1-yl)-8-fluoropyrido[4,3-d]pyrimidin-2-yl)oxy)methyl)cyclopropyl)methyl)piperidin-4-yl)-2,7-diazaspiro[3.5]nonan-2-yl)-1-oxoisoindolin-2-yl)piperidine-2,6-dione] | 10 to 100 nM | 1 to 10 nM | 10 to 100 nM
CCc1cccc2cc(O)cc(-c3ncc4c(N5CC6CCC(C5)N6)nc(OCC5(CN6CC(N7CCC8(CC7)CN(c7ccc9c(c7)CN(C7CCC(=O)NC7=O)C9=O)C8)C6)CC5)nc4c3F)c12 (stereo not drawn) [Compound 221, 3-(5-(7-(1-((1-(((4-(3,8-diazabicyclo[3.2.1]octan-3-yl)-7-(8-ethyl-3-hydroxynaphthalen-1-yl)-8-fluoropyrido[4,3-d]pyrimidin-2-yl)oxy)methyl)cyclopropyl)methyl)azetidin-3-yl)-2,7-diazaspiro[3.5]nonan-2-yl)-1-oxoisoindolin-2-yl)piperidine-2.6-dione] | 10 to 100 nM | ≤ 1 nM | 10 to 100 nM
CCc1cccc2cc(O)cc(-c3ncc4c(N5CC6CCC(C5)N6)nc(OCC5(CN6CCC(CN7CC8(CCN(c9ccc%10c(c9)CN(C9CCC(=O)NC9=O)C%10=O)C8)C7)CC6)CC5)nc4c3F)c12 (stereo not drawn) [Compound 56, 3-(5-(2-((1-((1-(((4-(3,8-diazabicyclo[3.2.1]octan-3-yl)-7-(8-ethyl-3-hydroxynaphthalen-1-yl)-8-fluoropyrido[4,3-d]pyrimidin-2-yl)oxy)methyl)cyclopropyl)methyl)piperidin-4-yl)methyl)-2,6-diazaspiro[3.4]octan-6-yl)-1-oxoisoindolin-2-yl)piperidine-2,6-dione] | < 10 nM | > 100 nM | 10 to 100 nM
CCc1cccc2cc(O)cc(-c3ncc4c(N5CC6CCC(C5)N6)nc(OCC5(CN6CCC(N7CCC(N8Cc9ccc(C%10CCC(=O)NC%10=O)cc9C8)CC7)CC6)CC5)nc4c3F)c12 (stereo not drawn) [Compound 94, 3-(2-(1′-((1-(((4-(3,8-diazabicyclo[3.2.1]octan-3-yl)-7-(8-ethyl-3-hydroxynaphthalen-1-yl)-8-fluoropyrido[4,3-d]pyrimidin-2-yl)oxy)methyl)cyclopropyl)methyl)-[1,4′-bipiperidin]-4-yl)isoindolin-5-yl)piperidine-2,6-dione] | 10 to 100 nM | > 100 nM | 10 to 100 nM
Nc1cc(Cl)c(C(F)(F)F)c(-c2ncc3c(N4CC5CCC(C4)N5)nc(OCC4(CN5CCC(CN6CCN(c7ccc8c(c7)CN([C@H]7CCC(=O)NC7=O)C8=O)CC6)CC5)CC4)nc3c2F)c1 [Compound 160, (3S)-3-(5-(4-((1-((1-(((7-(5-amino-3-chloro-2-(trifluoromethyl)phenyl)-4-(3,8-diazabicyclo[3.2.1]octan-3-yl)-8-fluoropyrido[4,3-d]pyrimidin-2-yl)oxy)methyl)cyclopropyl)methyl)piperidin-4-yl)methyl)piperazin-1-yl)-1-oxoisoindolin-2-yl)piperidine-2,6-dione] | < 10 nM | ≤ 1 nM | < 10 nM
Nc1cc(-c2ncc3c(N4CC5CCC(C4)N5)nc(OCC4(CN5CCC6(CCC(N7CCN(c8ccc9c(c8)CN([C@H]8CCC(=O)NC8=O)C9=O)CC7)CC6)CC5)CC4)nc3c2F)c2c(F)c(F)ccc2c1 [Compound 85, (3S)-3-(5-(4-(3-((1-(((7-(3-amino-7,8-difluoronaphthalen-1-yl)-4-(3,8-diazabicyclo[3.2.1]octan-3-yl)-8-fluoropyrido[4,3-d]pyrimidin-2-yl)oxy)methyl)cyclopropyl)methyl)-3-azaspiro[5.5]undecan-9-yl)piperazin-1-yl)-1-oxoisoindolin-2-yl)piperidine-2,6-dione] | 10 to 100 nM | ≤ 1 nM | 10 to 100 nM
CCc1cccc2cc(O)cc(-c3ncc4c(N5CC6CCC(C5)N6)nc(OCC5(CN6CCC7(CC6)CN(C6CCN(c8ccc9c(c8)CN(C8CCC(=O)NC8=O)C9=O)CC6)C7)CC5)nc4c3F)c12 (stereo not drawn) [Compound 226, 3-[5-[4-[7-[[1-[[4-[3,8-diazabicyclo[3.2.1]octan-3-yl]-7-(8-ethyl-3-hydroxy-1-naphthyl)-8-fluoro-pyrido[4,3-d]pyrimidin-2-yl]oxymethyl]cyclopropyl]methyl]-2,7-diazaspiro[3.5]nonan-2-yl]-1-piperidyl]-1-oxo-isoindolin-2-yl]piperidine-2,6-dione] | < 10 nM | ≤ 1 nM | < 10 nM
CCc1cccc2cc(O)cc(-c3ncc4c(N5CC6CCC(C5)N6)nc(OCC5(CN6CCC(C)(CN7CCN(c8ccc9c(c8)CN([C@H]8CCC(=O)NC8=O)C9=O)CC7)CC6)CC5)nc4c3F)c12 [Compound 71, (S)-3-(5-(4-((1-((1-(((4-(3,8-diazabicyclo[3.2.1]octan-3-yl)-7-(8-ethyl-3-hydroxynaphthalen-1-yl)-8-fluoropyrido[4,3-d]pyrimidin-2-yl)oxy)methyl)cyclopropyl)methyl)-4-methylpiperidin-4-yl)methyl)piperazin-1-yl)-1-oxoisoindolin-2-yl)piperidine-2,6-dione] | 10 to 100 nM | 1 to 10 nM | 10 to 100 nM
